This is an account of results in patent US9334269B2, “Carboxamides as inhibitors of voltage-gated sodium channels” (AMGEN INC., priority 2010, dated 2016).

SMILES strings stand for the structures.

For the first assay, the target named is T1, human Nav1.7 (hNav1.7) (Homo sapiens, UniProt Q15858).
T1 construct: expressed in transfected cells
T1 sequence (Q15858 whole entry): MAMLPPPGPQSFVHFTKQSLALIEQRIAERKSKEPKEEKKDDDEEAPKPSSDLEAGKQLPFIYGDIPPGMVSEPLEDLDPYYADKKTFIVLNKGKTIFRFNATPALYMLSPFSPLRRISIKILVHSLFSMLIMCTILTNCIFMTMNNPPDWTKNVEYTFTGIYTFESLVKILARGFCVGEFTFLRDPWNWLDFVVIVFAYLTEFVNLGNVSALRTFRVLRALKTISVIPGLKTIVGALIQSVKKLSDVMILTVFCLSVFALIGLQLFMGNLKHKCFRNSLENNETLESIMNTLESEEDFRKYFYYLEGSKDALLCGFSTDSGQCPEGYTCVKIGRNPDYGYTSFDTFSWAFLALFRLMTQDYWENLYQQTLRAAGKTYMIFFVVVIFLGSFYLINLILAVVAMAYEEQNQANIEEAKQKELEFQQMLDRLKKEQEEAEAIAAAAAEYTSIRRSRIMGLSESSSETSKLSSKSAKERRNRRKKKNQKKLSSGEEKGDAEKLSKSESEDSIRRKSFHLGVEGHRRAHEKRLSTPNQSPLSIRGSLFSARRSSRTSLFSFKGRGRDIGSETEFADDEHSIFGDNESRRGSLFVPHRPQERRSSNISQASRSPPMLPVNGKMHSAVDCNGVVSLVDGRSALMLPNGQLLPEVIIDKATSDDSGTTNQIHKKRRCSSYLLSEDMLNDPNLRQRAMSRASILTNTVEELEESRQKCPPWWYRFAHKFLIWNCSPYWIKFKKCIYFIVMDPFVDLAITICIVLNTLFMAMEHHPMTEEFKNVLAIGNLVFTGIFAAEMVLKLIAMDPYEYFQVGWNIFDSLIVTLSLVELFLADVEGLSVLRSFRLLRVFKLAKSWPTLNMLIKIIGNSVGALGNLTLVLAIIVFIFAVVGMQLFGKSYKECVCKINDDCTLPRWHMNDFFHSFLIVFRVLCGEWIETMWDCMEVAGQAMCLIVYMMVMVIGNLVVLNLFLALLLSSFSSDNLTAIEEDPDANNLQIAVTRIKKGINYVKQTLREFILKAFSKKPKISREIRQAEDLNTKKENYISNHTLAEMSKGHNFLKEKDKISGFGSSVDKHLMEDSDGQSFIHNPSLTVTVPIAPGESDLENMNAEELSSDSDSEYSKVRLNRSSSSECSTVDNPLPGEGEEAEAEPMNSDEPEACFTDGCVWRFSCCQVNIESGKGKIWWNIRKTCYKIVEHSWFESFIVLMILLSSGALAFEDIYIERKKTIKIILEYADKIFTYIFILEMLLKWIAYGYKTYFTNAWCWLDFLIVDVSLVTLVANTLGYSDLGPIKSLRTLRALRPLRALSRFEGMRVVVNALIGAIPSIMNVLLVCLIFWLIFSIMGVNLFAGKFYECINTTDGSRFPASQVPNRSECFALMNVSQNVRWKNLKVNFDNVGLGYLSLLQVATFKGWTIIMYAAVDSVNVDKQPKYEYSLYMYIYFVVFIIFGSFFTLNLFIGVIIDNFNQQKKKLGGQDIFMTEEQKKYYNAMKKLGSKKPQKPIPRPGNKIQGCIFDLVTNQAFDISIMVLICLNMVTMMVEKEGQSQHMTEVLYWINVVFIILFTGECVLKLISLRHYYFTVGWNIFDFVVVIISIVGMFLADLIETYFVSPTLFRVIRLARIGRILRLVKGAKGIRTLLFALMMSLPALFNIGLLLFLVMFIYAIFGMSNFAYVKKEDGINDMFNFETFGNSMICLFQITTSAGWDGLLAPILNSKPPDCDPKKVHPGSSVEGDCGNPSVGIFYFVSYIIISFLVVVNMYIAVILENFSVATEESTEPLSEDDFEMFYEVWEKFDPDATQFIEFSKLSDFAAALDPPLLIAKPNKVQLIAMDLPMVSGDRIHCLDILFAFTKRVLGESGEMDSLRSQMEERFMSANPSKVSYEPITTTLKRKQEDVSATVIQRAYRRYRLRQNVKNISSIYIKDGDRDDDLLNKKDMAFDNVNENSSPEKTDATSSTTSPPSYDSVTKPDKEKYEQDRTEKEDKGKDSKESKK
Description: hNav1.7 whole-cell patch-clamp electrophysiology (automated PatchXpress 7000A or manual) in stably expressing 293 cells. The assay is classed as cell-based. The conditions noted are these: average IC50. In a few lines: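 Stably transfected 293 cells lacking endogenous sodium channels; peak current evoked by depolarizing pulses during increasing compound concentrations, automated at ~20% fractional inactivation, or manually at −140 mV (resting) and ~20% inactivation. Block taken at steady state, corrected for rundown; IC50 by Hill fit.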
`CNC(=O)c1cccc(Nc2ncnc(NCc3cn4cc(C)ccc4n3)n2)c1` [Example 286]: the IC50 is over 30 µM.
In the case of `CNC(=O)c1cccc(Nc2ncnc(NCCc3nc4cc(Cl)ccc4[nH]3)n2)c1` [Example 288], the IC50 is over 30 µM.
The same measure, in the same setting: to `CNC(=O)c1cccc(Nc2ncnc(N3CCC(OCc4cccc(OC(F)(F)F)c4)CC3)n2)c1` [Example 277] belongs 25.4 µM.

The assay is the same for the next values; noted with them: average IC50, human Nav1.7.
Compound `CNC(=O)c1cccc(Nc2ncnc(N3CC(Oc4ccc(C(C)(C)C)cc4)C3)n2)c1` [Example 149] showed a half-maximal inhibitory concentration (IC50) of 2.99 µM. That is a single-digit micromolar value.
The same measure, in the same setting: the same measure for `CNC(=O)c1c(F)ccc(Nc2ncnc(N3CC(COc4ccc(Cl)cc4)C3)n2)c1F` [Example 161]: 3.67 µM; for `CNC(=O)c1cccc(Nc2nccc(N3CC(Oc4ccc(F)c(F)c4)C3)n2)c1` [Example 106]: 1.6 µM.
On the same count and under the same terms, the same measure for `CNC(=O)c1cccc(Nc2ncnc(N3CCN(c4ccc(C)c(C)c4)CC3)n2)c1` [Example 53]: 0.69 µM.
Same read-out and setting: the same measure for `CNC(=O)c1cccc(Nc2ncnc(N3CC(COc4ccc5ccccc5c4)C3)n2)c1` [Example 234]: 10 µM.
`CNC(=O)c1cccc(Nc2ncnc(N3CC(Oc4ccccc4OC(F)(F)F)C3)n2)c1` [Example 181]: it took 4.93 µM to reach half-maximal inhibition (IC50).
`CNC(=O)c1cccc(Nc2ncnc(N3CCC(Oc4ccccc4)CC3)n2)c1` [Example 45] displayed an IC50 of 0.63 µM.
Same read-out and setting: the same measure for `CNC(=O)c1cccc(Nc2ncnc(N3CC(Oc4ccc(Cl)c(Cl)c4)C3)n2)c1` [Example 39]: 0.5 µM; for `CNC(=O)c1cccc(Nc2ncnc(N3CC(Oc4cccc(OC)c4)C3)n2)c1` [Example 80]: 1.03 µM.
Same read-out and setting: the same measure for `CNC(=O)c1cccc(Nc2ncnc(N3CC(COc4ccccc4F)C3)n2)c1` [Example 251]: 13.8 µM.
The compound `CNC(=O)c1cccc(Nc2ncnc(N3CC(COc4ccc(Cl)cc4Cl)C3)n2)c1` [Example 132] displayed a concentration for half-maximal inhibition (IC50) of 2.55 µM.
`CNC(=O)c1cccc(Nc2ncnc(N3CC(COCc4ccc(C(F)(F)F)cc4)C3)n2)c1` [Example 189] registered an IC50 of 5.56 µM.
On the same count and under the same terms, the same measure for `COCCNC(=O)c1cccc(Nc2ncnc(N3CC(COc4ccc(Cl)cc4)C3)n2)c1` [Example 47]: 0.64 µM; for `CCn1c2c(c3ccccc31)CN(c1ncnc(Nc3cccc(C(=O)NC)c3)n1)CC2` [Example 127]: 2.31 µM; for `CNC(=O)c1cccc(Nc2ncnc(N3CCC(OCc4ccc(C(F)(F)F)cc4)CC3)n2)c1` [Example 150]: 3.03 µM.
On the same count and under the same terms, the same measure for `CNC(=O)c1cccc(Nc2ncnc(N3CC(Oc4ccc(Cl)cc4Cl)C3)n2)c1` [Example 51]: 0.65 µM; for `CNC(=O)c1cccc(Nc2ncnc(N3CC(COc4ccc(Cl)c(Cl)c4)C3)n2)c1` [Example 158]: 3.5 µM.
The same measure, in the same setting: the same measure for `CNC(=O)c1cccc(Nc2ncnc(N3CC(Oc4cccc(-c5ccccc5)c4)C3)n2)c1` [Example 199]: 7.02 µM.
`CNC(=O)c1cccc(Nc2ncnc(N3CCC(Oc4cccc(OC(F)(F)F)c4)CC3)n2)c1` [Example 119]: half-maximal inhibition (IC50) required 2.07 µM.
In turn, `CNC(=O)c1cccc(Nc2ncnc(N3CC(Oc4cc(Cl)cc(Cl)c4)C3)n2)c1` [Example 224] showed an IC50 of 9.29 µM.
Same read-out and setting: to `CNC(=O)c1cccc(Nc2ncnc(N3CCc4cc(C5CC5)ccc4C3)n2)c1` [Example 92] belongs 1.29 µM.
In turn, `CCNC(=O)c1cccc(Nc2ncnc(N3CC(Oc4ccc(F)cc4)C3)n2)c1` [Example 102] came in with an IC50 of 1.51 µM.
Same read-out and setting: the same measure for `CNC(=O)c1cc(F)cc(Nc2ncnc(N3CC(COc4ccc(Cl)cc4)C3)n2)c1` [Example 173]: 4.56 µM; for `CCc1cccc(OC2CN(c3ncnc(Nc4cccc(C(=O)NC)c4)n3)C2)c1` [Example 17]: 0.3 µM; for `CNC(=O)c1cccc(Nc2ncnc(N3CC(COc4ccc(Cl)c(F)c4)C3)n2)c1` [Example 91]: 1.29 µM.
Still for that read-out and setting: the same measure for `CNC(=O)c1cccc(Nc2ncnc(N3CC(Oc4ccc(C)cc4Cl)C3)n2)c1` [Example 32]: 0.44 µM; for `CNC(=O)c1cccc(Nc2ncnc(N3CC(Oc4ccccc4F)C3)n2)c1` [Example 192]: 5.6 µM.
Compound `CNC(=O)c1cccc(Nc2ncnc(N3CCC(c4nc(-c5ccccc5)c(C)s4)CC3)n2)c1` [Example 168] yielded an IC50 of 4.22 µM.
On the same count and under the same terms, the same measure for `CNC(=O)c1cccc(Nc2ncnc(N3CCC(COc4ccc(F)c(F)c4)CC3)n2)c1` [Example 93]: 1.3 µM; for `CNC(=O)c1cccc(Nc2ncnc(N3CC(Oc4ccc(OCc5ccccc5)cc4)C3)n2)c1` [Example 214]: 8.47 µM.
The same measure, in the same setting: the same measure for `CNC(=O)c1cccc(Nc2ncnc(N3CC(COc4ccc(Cl)c(C(F)(F)F)c4)C3)n2)c1` [Example 208]: 8.11 µM; for `CNC(=O)c1cccc(Nc2ncnc(N3CC(Oc4ccccc4-c4ccccc4)C3)n2)c1` [Example 217]: 8.66 µM; for `CNC(=O)c1cccc(Nc2ncnc(NCCCc3ccc(Cl)cc3)n2)c1` [Example 232]: 9.84 µM.
Still for that read-out and setting: the same measure for `CNC(=O)c1cccc(Nc2ncnc(N3CC(Oc4ccccc4Cl)C3)n2)c1` [Example 29]: 0.42 µM.
On to `CNC(=O)c1cccc(Nc2ncnc(N3CC(COc4ccc(C#N)cc4)C3)n2)c1` [Example 258], for which the midpoint of inhibition, the IC50, lay at 16.9 µM.
Still for that read-out and setting: the same measure for `CNC(=O)c1cccc(Nc2ncnc(N3CCc4cc(OCC(F)(F)F)ccc4C3)n2)c1` [Example 41]: 0.52 µM; for `CNC(=O)c1cccc(Nc2ncnc(N3CCC(Cc4ccccc4)CC3)n2)c1` [Example 230]: 9.5 µM; for `CNC(=O)c1cccc(Nc2ncnc(N3CC(COc4ccc(Cl)c5cccnc45)C3)n2)c1` [Example 255]: 16 µM.
Same read-out and setting: the same measure for `CNC(=O)c1cccc(Nc2ncnc(N3CC(Oc4ccc(F)cc4Cl)C3)n2)c1` [Example 54]: 0.72 µM.
The same measure, in the same setting: the same measure for `CNC(=O)c1cccc(Nc2ncnc(N3CC(COc4cccc(OC(F)(F)F)c4)C3)n2)c1` [Example 171]: 4.33 µM; for `CNC(=O)c1cc(Nc2ncnc(N3CC(Oc4ccc(Cl)cc4F)C3)n2)ccc1F` [Example 14]: 0.28 µM; for `CNC(=O)c1cccc(Nc2ncnc(NCCCOc3ccc(Cl)cc3)n2)c1` [Example 152]: 3.1 µM.
Compound `NC(=O)c1cccc(Nc2ncnc(N3CCc4cc(Br)ccc4C3)n2)c1` [Example 221] registered a 50% inhibitory concentration (IC50) of 8.9 µM.
Same read-out and setting: the same measure for `CNC(=O)c1cccc(Nc2ncnc(N3CC(OCc4ccc(OC(F)(F)F)cc4)C3)n2)c1` [Example 94]: 1.32 µM; for `CNC(=O)c1cccc(Nc2ncnc(N3CC(Oc4ccc(C#N)cc4)C3)n2)c1` [Example 210]: 8.24 µM.
Consider `CNC(=O)c1cccc(Nc2ncnc(N3CCC3COc3ccc(Cl)cc3)n2)c1` (stereo not drawn) [Example 211], for which the IC50 was 8.3 µM.
Same read-out and setting: the same measure for `CNC(=O)c1cccc(Nc2ncnc(NCCCOc3ccc(C(F)(F)F)cc3)n2)c1` [Example 169]: 4.25 µM; for `NC(=O)c1cccc(Nc2ncnc(N3CCC(OCc4ccc(OC(F)(F)F)cc4)CC3)n2)c1` [Example 200]: 7.03 µM.
Still for that read-out and setting: to `CNC(=O)c1cccc(Nc2nccc(N3CC(Oc4ccc(Cl)cc4)C3)n2)c1` [Example 30] belongs 0.43 µM.
On the same count and under the same terms, to `C#Cc1cccc(OC2CN(c3ncnc(Nc4cccc(C(=O)NC)c4)n3)C2)c1` [Example 78] belongs 0.99 µM.

The same assay, now with this note: human Nav1.7 stably expressed in 293 cells; whole-cell patch clamp; average IC50 from Hill fit.
Regarding `CNC(=O)c1cccc(Nc2ccnc(N3CC(Oc4ccc(F)cc4)C3)c2)c1` [Example V, 3-((2-(3-(4-fluorophenoxy)-1-azetidinyl)-4-pyridinyl)amino)-N-methylbenzamide], the IC50 came out at 5.78 µM. In other words, the single-digit micromolar range.
The same measure, in the same setting: to `CNC(=O)c1cc(F)cc(Nc2ncnc(N3CC(Oc4ccc(Cl)cc4F)C3)n2)c1` [Example S, 3-(4-(3-(4-chloro-2-fluorophenoxy)azetidin-1-yl)-1,3,5-triazin-2-ylamino)-5-fluoro-N-methylbenzamide] belongs over 30 µM; to `CNC(=O)c1cccc(Nc2nccc(N3CC(Oc4ccc(Cl)c(C)c4)C3)n2)c1` [Example L, 3-((4-(3-(4-chloro-3-methylphenoxy)-1-azetidinyl)-2-pyrimidinyl)amino)-N-methylbenzamide], 0.31 µM; to `CCNC(=O)c1cccc(Nc2ncnc(N3CC(Oc4ccc(Cl)cc4F)C3)n2)c1` [Example R, 3-(4-(3-(4-chloro-2-fluorophenoxy)azetidin-1-yl)-1,3,5-triazin-2-ylamino)-N-ethylbenzamide], 1.14 µM.
Still for that read-out and setting: the same measure for `CNC(=O)c1cccc(Nc2nccc(N3CC(Oc4ccc(F)c(C)c4)C3)n2)c1` [Example G, 3-((4-(3-(4-fluoro-3-methylphenoxy)-1-azetidinyl)-2-pyrimidinyl)amino)-N-methylbenzamide]: 1.41 µM; for `CNC(=O)c1cccc(Nc2nccc(N3CC(Oc4ccc(Cl)c(Cl)c4)C3)n2)c1` [Example A, 3-(4-(3-(3,4-dichlorophenoxy)azetidin-1-yl)pyrimidin-2-ylamino)-N-methylbenzamide]: 0.78 µM; for `CNC(=O)c1cccc(Nc2ncnc(N3CCC(OCc4ccc(OC(F)(F)F)cc4)CC3)n2)c1C` [Example AD, N,2-dimethyl-3-((4-(4-((4-(trifluoromethoxy)benzyl)oxy)-1-piperidinyl)-1,3,5-triazin-2-yl)amino)benzamide]: 28.6 µM.
For `CNC(=O)c1cccc(Nc2nccc(N3CC(Oc4ccc(F)cc4C)C3)n2)c1` [Example J, 3-((4-(3-(4-fluoro-2-methylphenoxy)-1-azetidinyl)-2-pyrimidinyl)amino)-N-methylbenzamide], the IC50 was 0.08 µM.
Still for that read-out and setting: to `CNC(=O)c1cccc(Nc2nccc(N3CC(Oc4ccc(F)c(Cl)c4)C3)n2)c1` [Example F, 3-((4-(3-(3-chloro-4-fluorophenoxy)-1-azetidinyl)-2-pyrimidinyl)amino)-N-methylbenzamide] belongs 2.83 µM; to `CNC(=O)c1cccc(Nc2cccc(N3CC(Oc4ccc(F)cc4)C3)c2)c1` [Example AF, 3-((3-(3-(4-fluorophenoxy)-1-azetidinyl)phenyl)amino)-N-methylbenzamide], 9.53 µM.
